For 18 compounds, EC50 results are on record in patent US20250179088A9 (ZYMEWORKS BC INC., priority 2020, published 2025).

Molecules are shown by their SMILES. Some results are limits rather than exact numbers.

One test has as its target T1, TLR8 (Homo sapiens, UniProt Q9NR97).
T1 sequence (Q9NR97 27-1041): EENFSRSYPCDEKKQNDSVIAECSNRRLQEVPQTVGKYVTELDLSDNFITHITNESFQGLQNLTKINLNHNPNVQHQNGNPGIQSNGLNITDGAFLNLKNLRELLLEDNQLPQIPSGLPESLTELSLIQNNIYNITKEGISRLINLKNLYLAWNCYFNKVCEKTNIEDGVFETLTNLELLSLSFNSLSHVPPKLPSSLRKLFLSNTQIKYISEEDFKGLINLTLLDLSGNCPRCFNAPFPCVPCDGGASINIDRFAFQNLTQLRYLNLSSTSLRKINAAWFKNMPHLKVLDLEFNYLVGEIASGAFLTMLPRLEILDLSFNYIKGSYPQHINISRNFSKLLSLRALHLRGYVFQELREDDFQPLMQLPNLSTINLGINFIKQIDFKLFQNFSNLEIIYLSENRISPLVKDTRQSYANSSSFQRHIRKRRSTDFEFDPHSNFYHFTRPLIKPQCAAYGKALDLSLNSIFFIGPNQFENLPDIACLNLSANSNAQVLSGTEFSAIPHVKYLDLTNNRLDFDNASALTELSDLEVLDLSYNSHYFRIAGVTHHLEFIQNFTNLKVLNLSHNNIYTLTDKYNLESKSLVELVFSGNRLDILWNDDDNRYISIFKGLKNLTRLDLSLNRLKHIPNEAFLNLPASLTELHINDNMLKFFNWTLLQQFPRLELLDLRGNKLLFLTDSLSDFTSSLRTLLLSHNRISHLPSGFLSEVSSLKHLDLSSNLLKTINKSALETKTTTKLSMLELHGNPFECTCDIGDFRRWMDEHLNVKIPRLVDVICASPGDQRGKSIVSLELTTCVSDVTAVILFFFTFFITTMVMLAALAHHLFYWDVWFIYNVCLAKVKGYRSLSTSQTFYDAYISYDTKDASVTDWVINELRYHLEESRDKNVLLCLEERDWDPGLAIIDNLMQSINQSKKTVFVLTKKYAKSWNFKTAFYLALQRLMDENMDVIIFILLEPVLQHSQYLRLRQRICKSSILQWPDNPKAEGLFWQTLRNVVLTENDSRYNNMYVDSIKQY
As to the kind of experiment: Reporter gene assay, HEK-Blue TLR8 reporter cells (SEAP). Background: Reporter assays use an easily measured gene product as a stand-in for the process of interest.

The test system of the next test is PBMCs. As to the kind of experiment: PBMC assay, IL-6 release (HTRF). It counts as cell-based. The settings on record: PBMCs from healthy donors, overnight, IL-6 induction by HTRF, average of quadruplicate.
The target in the next test is T2, TLR7 (Homo sapiens, UniProt Q9NYK1).
T2 sequence (Q9NYK1 27-1049): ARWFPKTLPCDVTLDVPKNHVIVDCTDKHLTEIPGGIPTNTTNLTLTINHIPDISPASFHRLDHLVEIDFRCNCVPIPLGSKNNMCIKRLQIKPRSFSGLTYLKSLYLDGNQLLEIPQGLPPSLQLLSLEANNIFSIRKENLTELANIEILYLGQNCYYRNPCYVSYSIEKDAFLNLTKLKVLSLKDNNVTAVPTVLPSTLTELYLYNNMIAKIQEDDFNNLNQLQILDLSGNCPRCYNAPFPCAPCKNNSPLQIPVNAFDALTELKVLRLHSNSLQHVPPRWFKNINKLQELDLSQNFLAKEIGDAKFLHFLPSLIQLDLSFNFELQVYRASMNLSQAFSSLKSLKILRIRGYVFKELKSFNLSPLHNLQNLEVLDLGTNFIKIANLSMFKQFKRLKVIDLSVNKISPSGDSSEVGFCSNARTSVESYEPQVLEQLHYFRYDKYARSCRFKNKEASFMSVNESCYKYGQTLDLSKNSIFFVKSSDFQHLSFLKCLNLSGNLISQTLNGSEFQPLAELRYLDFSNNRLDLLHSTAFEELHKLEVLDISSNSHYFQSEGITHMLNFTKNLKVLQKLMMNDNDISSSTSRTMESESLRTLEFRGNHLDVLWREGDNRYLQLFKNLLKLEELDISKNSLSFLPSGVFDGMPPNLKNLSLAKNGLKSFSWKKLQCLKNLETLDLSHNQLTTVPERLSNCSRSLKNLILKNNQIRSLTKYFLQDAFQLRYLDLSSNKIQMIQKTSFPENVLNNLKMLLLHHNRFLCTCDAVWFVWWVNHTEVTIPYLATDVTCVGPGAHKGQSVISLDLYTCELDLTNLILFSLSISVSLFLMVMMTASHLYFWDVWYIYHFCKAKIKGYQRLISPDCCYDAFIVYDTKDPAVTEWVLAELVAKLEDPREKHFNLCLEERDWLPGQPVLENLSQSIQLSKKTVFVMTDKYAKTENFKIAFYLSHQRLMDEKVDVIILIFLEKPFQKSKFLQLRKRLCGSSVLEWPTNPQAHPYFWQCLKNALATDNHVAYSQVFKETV
As to the kind of experiment: Reporter gene assay, HEK-Blue TLR7 reporter cells (SEAP).

Description for TLR7: (§1) 3×10^4 HEK-Blue™ TLR7 or 3×10^4 TLR8 reporter cells (InvivoGen, San Diego, CA) were treated with titrated (4-fold) amounts of test compound. […] Cells were incubated overnight at 37° C. and 5% CO2, then absorbance (620 and 655 nm) was read on a Synergy™ H1 microplate reader.
Description for TLR8: as §1

For `CCCCc1nc2c(N)nc3ccsc3c2n1Cc1ccccc1CNCCCCCO` [Compound 223], the EC50 at TLR8, in the test with PBMCs and at TLR7 was > 1000 nM in each case.
Regarding `CCCCc1nc2c(N)nc3ccsc3c2n1Cc1ccccc1CNCc1ccc(CO)cc1` [Compound 224, (4-(((2-((4-amino-2-butyl-1H-imidazo[4,5-d]thieno[3,2-b]pyridin-1-yl)methyl)benzyl)amino)methyl)phenyl)methanol], the half-maximal effective concentration (EC50) at TLR8, in the test with PBMCs and at TLR7 was > 1000 nM throughout.
As for `CCCCc1nc2c(N)nc3ccsc3c2n1Cc1ccccc1CNCC(C)(C)O` [Compound 225, 1-((2-((4-amino-2-butyl-1H-imidazo[4,5-d]thieno[3,2-b]pyridin-1-yl)methyl)benzyl)amino)-2-methylpropan-2-ol], the EC50 on TLR8, in the test on PBMCs and at TLR7 was > 1000 nM each time.
Consider `CCCCc1nc2c(N)nc3ccsc3c2n1Cc1nc(CO)cs1` [Compound 228, (2-((4-amino-2-butyl-1H-imidazo[4,5-d]thieno[3,2-b]pyridin-1-yl)methyl)thiazol-4-yl)methanol], for which the EC50 – broadly, the midpoint of the concentration-response curve – at TLR8 is > 1000 nM; in the test with PBMCs it was > 1000 nM; at TLR7, 220 nM.
Turning to `CCCCc1nc2c(N)nc3ccsc3c2n1Cc1cccc(Cn2ccnc2)c1` [Compound 229, 1-(3-((1H-imidazol-1-yl)methyl)benzyl)-2-butyl-1H-imidazo[4,5-d]thieno[3,2-b]pyridin-4-amine], the EC50 was > 1000 nM at TLR8, > 1000 nM in the test on PBMCs and 420 nM at TLR7.
Consider `CCCCc1nc2c(N)nc3ccsc3c2n1Cc1nc(CNCc2cc[nH]c2)cs1` [Compound 231, 1-((4-((((1H-pyrrol-3-yl)methyl)amino)methyl)thiazol-2-yl)methyl)-2-butyl-1H-imidazo[4,5-d]thieno[3,2-b]pyridin-4-amine], for which the EC50 at TLR8 amounted to 580 nM; in the test with PBMCs, 920 nM; on TLR7, 110 nM.
The matching figures for `CCCCc1nc2c(N)nc3ccsc3c2n1Cc1nc(CN(CC)CC)cs1` [Compound 233, 2-butyl-1-((4-((diethylamino)methyl)thiazol-2-yl)methyl)-1H-imidazo[4,5-d]thieno[3,2-b]pyridin-4-amine]: 880 nM, 630 nM and 140 nM.
For the compound `CCCCc1nc2c(N)nc3ccsc3c2n1Cc1nc(CN2CCN(CCN3CCOCC3)CC2)cs1` [Compound 234, 2-butyl-1-((4-((4-(2-morpholinoethyl)piperazin-1-yl)methyl)thiazol-2-yl)methyl)-1H-imidazo[4,5-d]thieno[3,2-b]pyridin-4-amine], the EC50 on TLR8 is > 1000 nM; in the test with PBMCs, > 1000 nM; at TLR7 it was 270 nM.
For the compound `CCCCc1nc2c(N)nc3ccsc3c2n1Cc1nc(CNCc2ccc(CO)cc2)cs1` [Compound 237, (4-((((2-((4-amino-2-butyl-1H-imidazo[4,5-d]thieno[3,2-b]pyridin-1-yl)methyl)thiazol-4-yl)methyl)amino)methyl)phenyl)methanol], the figures for the half-maximal effective concentration (EC50) on TLR8, with PBMCs and on TLR7 were > 1000 nM, 500 nM and 190 nM, respectively.
The matching figures for `CCCCc1nc2c(N)nc3ccsc3c2n1Cc1ncc(CNCC(C)(C)O)s1` [Compound 238, 1-(((2-((4-amino-2-butyl-1H-imidazo[4,5-d]thieno[3,2-b]pyridin-1-yl)methyl)thiazol-5-yl)methyl)amino)-2-methylpropan-2-ol]: > 1000 nM, > 1000 nM and 420 nM.
In the case of `CCCCc1nc2c(N)nc3ccsc3c2n1Cc1nc(CN2CCNCC2)cs1` [Compound 242, 2-butyl-1-((4-(piperazin-1-ylmethyl)thiazol-2-yl)methyl)-1H-imidazo[4,5-d]thieno[3,2-b]pyridin-4-amine], the EC50 on TLR8 is > 1000 nM; with PBMCs, > 1000 nM; at TLR7 it was 150 nM.
In the case of `CCCCc1nc2c(N)nc3ccsc3c2n1Cc1ccc(CO)o1` [Compound 253, (5-((4-amino-2-butyl-1H-imidazo[4,5-d]thieno[3,2-b]pyridin-1-yl)methyl)furan-2-yl)methanol], the EC50 on TLR8, in the test with PBMCs and at TLR7 was > 1000 nM throughout.
For the compound `CCCCc1nc2c(N)nc3ccsc3c2n1Cc1ccc(CNCCCCNC(=O)OCc2ccccc2)cc1` [Compound 260, benzyl (4-((4-((4-amino-2-butyl-1H-imidazo[4,5-d]thieno[3,2-b]pyridin-1-yl)methyl)benzyl)amino)butyl)carbamate], the figures for the EC50 at TLR8, in the test on PBMCs and on TLR7 were > 1000 nM, 719 nM and 89 nM, respectively.
The matching figures for `CCCCc1nc2c(N)nc3ccsc3c2n1Cc1ccc(CNc2ccc3c(c2)CCN(C(=O)OC(C)(C)C)C3)cc1` [Compound 261, tert-butyl 6-((4-((4-amino-2-butyl-1H-imidazo[4,5-d]thieno[3,2-b]pyridin-1-yl)methyl)benzyl)amino)-3,4-dihydroisoquinoline-2(1H)-carboxylate]: > 1000 nM, 602 nM and 106 nM.
The matching figures for `CCCCc1nc2c(N)nc3ccsc3c2n1Cc1ccc(CNC2CCCN(C(=O)OC(C)(C)C)C2)cc1` (stereo not drawn) [Compound 262, tert-butyl 3-((4-((4-amino-2-butyl-1H-imidazo[4,5-d]thieno[3,2-b]pyridin-1-yl)methyl)benzyl)amino)piperidine-1-carboxylate]: > 1000 nM, > 1000 nM and 95 nM.
The matching figures for `CCCCc1nc2c(N)nc3ccsc3c2n1Cc1ccc(CN2CCC(CNC(=O)OC(C)(C)C)CC2)cc1` [Compound 263, tert-butyl ((1-(4-((4-amino-2-butyl-1H-imidazo[4,5-d]thieno[3,2-b]pyridin-1-yl)methyl)benzyl)piperidin-4-yl)methyl)carbamate]: > 1000 nM, 853 nM and 53 nM.
`CCCCc1nc2c(N)nc3ccsc3c2n1Cc1ccc(CNCC2CCN(C(=O)OC(C)(C)C)CC2)cc1` [Compound 264, tert-butyl 4-(((4-((4-amino-2-butyl-1H-imidazo[4,5-d]thieno[3,2-b]pyridin-1-yl)methyl)benzyl)amino)methyl)piperidine-1-carboxylate]: the EC50 is > 1000 nM on TLR8, 153 nM in the test with PBMCs and 83 nM at TLR7.
The matching figures for `CCNCc1nc2c(N)nc3ccsc3c2n1Cc1ccc(CN2CCNCC2)cc1` [Compound 268, 2-((ethylamino)methyl)-1-(4-(piperazin-1-ylmethyl)benzyl)-1H-imidazo[4,5-d]thieno [3,2-b]pyridin-4-amine]: > 1000 nM, > 1000 nM and > 1000 nM.
